In patent publication EP0874818B1, “NOVEL SUBSTITUTED ARYL COMPOUNDS USEFUL AS MODULATORS OF ACETYLCHOLINE RECEPTORS” (priority 1995, dated 1997):
Like-named read-outs stand apart in the source and are kept apart here. Each block holds one compound with its values, some of them ahead of it.

Columns and labels:
[1] = tested on: rat hippocampus; assay: tissue or blood; assay type: cell-based; conditions: read-out: % of Nicotine Response 3H-NE Hippocampus
[2] = tested on: rat striatal slices; assay: 3H-dopamine release from rat striatal slices (superfusion); assay type: cell-based; conditions: read-out: % of Nicotine Response 3H-DA Striatum
Procedure: Measurement of ^3H-dopamine (^3H-DA) release from rat striatal slices was performed according to the method of Sacaan et al., (J. Pharmacol. Comp. Ther 224:224-230 (1995)). Male Sprague-Dawley rats (250-300 g) were decapitated and the striata or olfactory tubercles dissected quickly on a cold glass surface. The tissue was chopped to a thickness of 300 µm with a McIlwain tissue chopper. After chopping again at right angles the tissue was dispersed and incubated for 10 min. at 37°C in oxygenated Kreb's buffer. ^3H-Dopamine (40 Ci/mmol, NEN-Dupont, Boston, Ma) was added (50 nM) and the tissue was incubated for 30 min. in Kreb's buffer containing 10 µM pargyline and 0.5 mM ascorbic acid. Aliquots of the minced tissue were then transferred to chambers of a Brandel Superfusion system in which the tissue was supported on Whatman GF/B filter discs. The tissue was then superfused with buffer at a constant flow rate of 0.3 ml/min by means of a Brandel peristaltic pump. The perfusate was collected in plastic scintillation vials in 3-min fractions, and the radioactivity was estimated by scintillation spectrophotometry. The superfusate for the first 120 min was discarded. […] At the end of the experiment the filter and the tissue were removed, and the radiolabeled neurotransmitter content was estimated after extraction into scintillation fluid. The fractional efflux of radiolabeled neurotransmitter was estimated as the amount of radioactivity in the perfusate fraction relative to the total amount in the tissue.
The results presented in the Table are expressed as the percent fractional release.

[3] = tested on: acetylcholine release in the hippocampus; assay type: in vivo, Male Sprague Dawley Rats
From the text: Male Sprague Dawley Rats (230-290 g) were anesthetized in a chamber saturated with isofluorane. Once immobilized, the rats were mounted in a Kopf stereotaxic apparatus with the incisor bar set at -3.3 mm (Praxinos and Watson, 1986). A midline incision was made on the skull to expose the underlying fascia. The skull was cleaned with an antibacterial preparation containing iodine and a hole was made in the skull at the following coordinates: AP, -3.5 mm and ML, +2.0 mm (Praxinos and Watson, 1986). A stainless steel guide cannula (Small Parts, Inc., Stillwater, FL) was cut to 2.0 mm length and inserted into the hole. Three additional holes were drilled into the skull surrounding the guide cannula and small machine screws were placed into these holes. The guide cannula and screws were secured by dental cement. A dummy cannula was inserted into the guide cannula to prevent clogging. The animals were removed from the stereotaxic frame and single housed for 3-7 days with free access to food and water.
On the day of the experiment, the rats were briefly anesthetized with isofluorane and the dummy cannulae were removed. A microdialysis cannula containing a Loop type probe with a rigid shaft and molecular weight cut-off of 6000 (ESA Inc, Chelmsfold, MA) of approximately 2 mm in length, was inserted into the guide cannula. Under these conditions, the microdialysis probe extended 2 mm beneath the guide cannula. The animal was placed in plastic bowl (CMA 120; CMA Microdialysis, Acton, MA, USA) with a harness around the neck. The microdialysis probe was connected to a syringe pump through which a salt solution representing the ionic concentration of the cerebrospinal fluid (artificial CSF; 145 mM NaCl; […]; […] and […]; pH 7.4; Moghaddam and Bunney, J. Neurochem, 53, 652-654, 1989) containing 100 nM neostigmine was pumped at a rate of 1.5 µL/min.
Twenty minute fractions were collected and automatically injected via a sample loop and an auto-injector. The on-line microdialysis comprised of the following components: a CMA/100 microsyringe pump connected to a CMA/111 syringe selector. The mobile phase (100 mM disodium hydrogen phosphate; 2.0 mM 1-octane sulfonic acid sodium salt; 0.005% reagent MB (ESA Inc., Chelmeford, MA) pH 8.00 with phosphoric acid) was pumped using a model 580 ESA pump through a polymeric reverse phase column (ACH-3, ESA Inc., […]; 3.2 mmx 15 cm). The effluent from the column was passed through an enzyme reactor containing immobilized acetylcholinesterase and choline oxidase (ACH-SPR, ESA Inc.). The HPLC column and the enzyme reactor were placed in a housing with a constant temperature of 35°C. Acetylcholine and choline in microdialysis samples were converted into hydrogen peroxide which was detected by amperometric oxidation in a ESA model 5041 analytical cell containing a glassy carbon target electrode and a palladium reference electrode. The oxidation potential was 250 mV and the signal was detected by a ESA model 5200 A Coulochem detector. The retention times for choline and acetylcholine under these conditions were 4 and 6 min, respectively. The limit of detection for acetylcholine was less than 100 fmol on column.
On the day of the experiment, 10-12 fractions were collected to establish the baseline acetylcholine release. Following the establishment of baseline, rats were injected with the test compound and samples were collected until the levels of acetylcholine in the dialysate samples returned to baseline levels (3-5 hr). Compounds were typically dissolved in saline and the pH of the solution was adjusted by the addition of NaOH.

[4] = target: muscarinic acetylcholine receptors; assay: 3H-QNB (quinuclidinyl benzilate) displacement, rat cerebral membranes; assay type: binding; conditions: read-out: Displacement of Radiolabeled Liqands IC50 Quinuc Benz
[5] = hippocampal acetylcholine, rat microdialysis, nicotine 0.4 mg/kg, lobeline 5.0 mg/kg, first Formula Z compound 40 mg/kg, other doses not given
[6] = compound tested at 300 µM, relative to nicotine 10µM
[7] = 60 pM 3H-QNB, rat cerebral membranes, no atropine

IC50 [4, 7]: 3300 nM
SMILES: CN1CCCC1CCSc1ccc(O)cc1Cl (stereo not drawn) [2-[2-(2-Chloro-4-hydroxyphenyl)thioethyl]-1-methylpyrrolidine]
Emax at 300 µM [2, 6]: 800%

IC50 [4, 7]: 1120 nM
SMILES: CN1CCC[C@H]1COC(=O)CCc1ccccc1 [1-Methyl-2-pyrrolidinemethyl 3-phenylpropionate]

IC50 [4, 7]: 2900 nM
SMILES: COc1ccc(SCCC2CCCN2C)cc1F (stereo not drawn) [2-[2-(3-Fluoro-4-methoxyphenyl)thioethyl]-1-methylpyrrolidine]
Emax at 300 µM [2, 6]: 21%

More lines, now with the values behind:

SMILES: CN1CCCC1CCSc1ccc(O)cc1 (stereo not drawn) [2-[2-(4-Hydroxyphenyl)thioethyl]-1-methylpyrrolidine]
Emax at 300 µM [1]: 32%
Emax at 300 µM [2]: 453%
Duration of Increase Above Baseline [3, 5]: 200 min
Peak Increase, % of Baseline [3, 5]: 2,000 % of Baseline
IC50 [4]: 1850 nM

SMILES: CNC1(C)C2CCC(C2)C1(C)C (stereo not drawn) [mecamylamine]
attenuation of acetylcholine release induced by compound of Formula Z (A = 4-hydroxyphenyl, B = not present, D = -S-, E = -CH2CH2-, G = 1-methylpyrrolidino) ([3]; rat hippocampus microdialysis, Figure 5): attenuation of acetylcholine release

SMILES: CN1CCCC1c1cccnc1 (stereo not drawn) [Nicotine, reference compound]
Emax at 300 µM [1]: 100%
Emax at 10 µM [2]: 100%
Duration of Increase Above Baseline ([3]; rat, in vivo): 200 min
Peak Increase, % of Baseline ([3]; rat, in vivo): 220 % of Baseline

SMILES: CN1[C@@H](CC(=O)c2ccccc2)CCC[C@H]1C[C@H](O)c1ccccc1 [Lobeline]
Duration of Increase Above Baseline [3, 5]: 200 min
Peak Increase, % of Baseline [3, 5]: 400 % of Baseline

SMILES: CN1CCC[C@H]1COC(=O)CCc1ccc(O)cc1 [1-Methvl-2-pyrrolidinemethyl 3-(4-hydroxyphenyl)propionate]
IC50 [4, 7]: > 10000 nM
